This note sets out measurements from ChEMBL document CHEMBL1201862, “PubChem BioAssay data set” (2004).

Assay [1] concerns the target T1, Heat shock factor protein 1 (Mus musculus, UniProt P38532).
T1 sequence (P38532 whole entry): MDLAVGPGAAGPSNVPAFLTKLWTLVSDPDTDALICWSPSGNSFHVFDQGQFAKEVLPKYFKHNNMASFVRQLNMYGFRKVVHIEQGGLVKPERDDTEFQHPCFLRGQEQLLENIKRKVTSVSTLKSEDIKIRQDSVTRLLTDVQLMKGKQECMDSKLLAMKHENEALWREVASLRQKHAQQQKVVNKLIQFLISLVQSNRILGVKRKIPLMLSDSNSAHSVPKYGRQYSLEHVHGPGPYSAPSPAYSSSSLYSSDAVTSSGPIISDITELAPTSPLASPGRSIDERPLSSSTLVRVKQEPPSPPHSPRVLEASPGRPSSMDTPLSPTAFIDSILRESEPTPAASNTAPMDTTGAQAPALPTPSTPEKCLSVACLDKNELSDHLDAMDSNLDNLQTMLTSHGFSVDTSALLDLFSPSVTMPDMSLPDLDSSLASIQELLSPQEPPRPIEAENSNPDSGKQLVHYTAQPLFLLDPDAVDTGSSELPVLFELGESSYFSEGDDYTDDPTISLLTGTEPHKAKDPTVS
Kind of assay: enhancement of HSF1-driven luciferase signal – cell-based, NIH3T3, luminescence, dose retest, confirmation (AID 435004).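 Also: stress induced by proteasome inhibitor MG132 added 30 min after compound; luciferase reporter driven by HSF1 response element in NIH3T3 cells; actives raise luminescence as potentiators of the MG132 stress response.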 It is filed as functional.

A further assay concerns the target Cytochrome P450 2C9 (Homo sapiens, UniProt P11712).
Assay [2] in a line: reduction of Shn3 3'UTR-driven luciferase in osteoblasts – cell-based, Clone20 osteoblasts, firefly luciferase, cherry-picked, dose response (AID 624132).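 Also: firefly luciferase luminescence from reporter carrying the Shn3 3'UTR in osteoblasts.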 It is filed as functional.
A short description of assay [3]: loss of viability in HepG2 cells – cell-based, CellTiter-Glo, cherry-picked, cytotoxicity control for Shn3 inhibitor project, dose response (AID 624134). It is filed as functional. (In general: ATP-based viability assays read luminescence as a measure of living cells.)
The nature of assay [4]: non-specific 3'UTR reporter inhibition in Clone20-Shn3RL – cell-based, Renilla luciferase, cherry-picked, counter-screen for Shn3 inhibitor project, dose response (AID 624133). It is filed as functional. A general note: A counterscreen serves to expose hits that act by an unwanted route or on another target.
The target of assay [5] is T2, Rac GTPase-activating protein 1 (Homo sapiens, UniProt Q9H0H5).
T2 sequence (Q9H0H5 whole entry): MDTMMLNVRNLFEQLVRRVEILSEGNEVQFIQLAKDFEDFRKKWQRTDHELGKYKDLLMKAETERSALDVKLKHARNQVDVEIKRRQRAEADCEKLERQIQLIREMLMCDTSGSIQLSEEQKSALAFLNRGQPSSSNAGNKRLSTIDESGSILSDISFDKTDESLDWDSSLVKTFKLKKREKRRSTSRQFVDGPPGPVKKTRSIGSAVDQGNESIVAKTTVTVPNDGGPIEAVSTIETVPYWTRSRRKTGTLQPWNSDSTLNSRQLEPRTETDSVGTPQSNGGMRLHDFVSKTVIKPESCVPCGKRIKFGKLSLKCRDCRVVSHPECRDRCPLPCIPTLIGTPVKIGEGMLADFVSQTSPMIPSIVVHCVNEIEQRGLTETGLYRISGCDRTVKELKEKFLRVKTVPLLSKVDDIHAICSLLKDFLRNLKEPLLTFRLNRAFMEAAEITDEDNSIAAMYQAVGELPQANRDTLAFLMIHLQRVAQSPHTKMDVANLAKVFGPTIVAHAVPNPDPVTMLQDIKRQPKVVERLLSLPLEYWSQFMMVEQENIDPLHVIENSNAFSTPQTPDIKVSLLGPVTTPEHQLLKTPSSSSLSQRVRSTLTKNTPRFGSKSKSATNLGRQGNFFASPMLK
Kind of assay: blockers of MgcRacGAP-driven Rac1 GTP hydrolysis – biochemical, ADP Hunter fluorescence, primary and confirmatory, confirmation (AID 624330). It is filed as functional.

For the next assay, the target named is T3, Streptokinase A (Streptococcus pyogenes serotype M1, UniProt P10520).
T3 sequence (P10520 whole entry): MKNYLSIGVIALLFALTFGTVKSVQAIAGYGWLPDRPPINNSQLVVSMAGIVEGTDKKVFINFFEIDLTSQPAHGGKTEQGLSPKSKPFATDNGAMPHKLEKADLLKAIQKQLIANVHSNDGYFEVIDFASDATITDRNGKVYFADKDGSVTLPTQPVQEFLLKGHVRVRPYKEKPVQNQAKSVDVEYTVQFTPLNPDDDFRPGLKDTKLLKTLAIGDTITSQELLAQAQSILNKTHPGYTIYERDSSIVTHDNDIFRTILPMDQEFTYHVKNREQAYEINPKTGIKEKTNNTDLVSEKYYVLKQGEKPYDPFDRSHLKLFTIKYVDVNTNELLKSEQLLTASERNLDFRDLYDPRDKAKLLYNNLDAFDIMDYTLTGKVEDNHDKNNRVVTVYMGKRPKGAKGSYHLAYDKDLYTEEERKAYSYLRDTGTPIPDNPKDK
As to the kind of experiment: viability-normalized secreted streptokinase activity reduction – plasminogen activation absorbance, OD405, dose response (AID 1914).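 Also: secreted streptokinase activity via plasminogen activation per viability signal from cell pellet.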 It is filed as functional, Streptococcus pyogenes M1 GAS.

In another assay the target is T4, Protein RecA (Mycobacterium tuberculosis, UniProt P9WHJ3).
T4 sequence (P9WHJ3 whole entry): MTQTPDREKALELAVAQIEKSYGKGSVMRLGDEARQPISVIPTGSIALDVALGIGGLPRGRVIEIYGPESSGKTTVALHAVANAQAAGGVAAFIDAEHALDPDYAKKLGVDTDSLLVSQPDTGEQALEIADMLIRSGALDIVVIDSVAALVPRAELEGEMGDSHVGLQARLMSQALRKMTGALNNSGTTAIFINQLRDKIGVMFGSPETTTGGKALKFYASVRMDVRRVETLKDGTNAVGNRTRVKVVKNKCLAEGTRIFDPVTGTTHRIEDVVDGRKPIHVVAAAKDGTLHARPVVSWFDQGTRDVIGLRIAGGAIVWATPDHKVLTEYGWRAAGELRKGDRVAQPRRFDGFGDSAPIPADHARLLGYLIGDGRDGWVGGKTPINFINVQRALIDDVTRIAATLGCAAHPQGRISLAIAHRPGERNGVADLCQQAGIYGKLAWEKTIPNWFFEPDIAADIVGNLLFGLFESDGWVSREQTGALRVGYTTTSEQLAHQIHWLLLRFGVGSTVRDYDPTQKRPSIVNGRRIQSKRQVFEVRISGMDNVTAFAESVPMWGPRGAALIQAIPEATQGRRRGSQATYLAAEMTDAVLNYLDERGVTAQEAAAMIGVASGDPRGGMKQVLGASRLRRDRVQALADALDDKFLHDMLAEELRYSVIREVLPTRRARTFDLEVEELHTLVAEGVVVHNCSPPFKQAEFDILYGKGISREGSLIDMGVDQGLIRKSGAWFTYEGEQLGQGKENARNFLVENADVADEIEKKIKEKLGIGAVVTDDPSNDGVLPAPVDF
Kind of assay: Fluorescence Cell-Free Homogeneous Dose Retest to Identify Inhibitors of RecA-Intein Splicing Activity. [Related pubchem assays (depositor defined):AID2097, AID2223, AID489010, AID492950]. It is filed as functional.

In a further assay the test system is Streptococcus. As to the kind of experiment: GAS UMAA2166 growth inhibition – luminescence, BacTiterGlo, counter-screen for streptokinase expression inhibitor project, dose response (AID 1915).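 Also: potency for reduction of bacterial viability or growth.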 It is filed as functional, organism-based.
For assay [6], the system named is Streptococcus sp. 'group A'. Kind of assay: Streptococcus pyogenes SK(-)GAS viability under kanamycin – luminescence, BacTiterGlo, confirmation, counter-screen for streptokinase expression inhibitor project, dose response (AID 1900). It is filed as functional, organism-based.
In another assay the target is Cytochrome P450 2C19 (Homo sapiens, UniProt P33261). As to the kind of experiment: Cytochrome panel assay with activity outcomes. Panel member name: p450-cyp2c19 Compounds with AC50 equal or less than 10 uM are considered active. It is filed as functional. The settings on record: read-out: AC50.

The source made the active and inactive calls. Where only a bound is given, the exact number is not on record here.

Sequence of Cytochrome P450 2C9 (P11712 whole entry): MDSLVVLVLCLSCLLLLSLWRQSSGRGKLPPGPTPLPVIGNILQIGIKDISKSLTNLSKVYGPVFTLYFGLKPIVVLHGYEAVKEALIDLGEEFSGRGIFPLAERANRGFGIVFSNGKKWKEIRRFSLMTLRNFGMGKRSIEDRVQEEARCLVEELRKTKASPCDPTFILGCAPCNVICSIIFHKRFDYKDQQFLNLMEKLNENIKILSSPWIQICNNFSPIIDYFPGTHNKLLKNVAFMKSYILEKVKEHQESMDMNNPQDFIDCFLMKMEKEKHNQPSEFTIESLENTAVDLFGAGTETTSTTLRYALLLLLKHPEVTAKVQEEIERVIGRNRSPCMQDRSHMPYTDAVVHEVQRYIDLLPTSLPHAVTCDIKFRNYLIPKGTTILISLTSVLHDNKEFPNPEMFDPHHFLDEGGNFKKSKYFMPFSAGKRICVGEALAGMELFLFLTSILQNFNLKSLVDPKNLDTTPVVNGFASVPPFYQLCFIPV
Sequence of Cytochrome P450 2C19 (P33261 whole entry): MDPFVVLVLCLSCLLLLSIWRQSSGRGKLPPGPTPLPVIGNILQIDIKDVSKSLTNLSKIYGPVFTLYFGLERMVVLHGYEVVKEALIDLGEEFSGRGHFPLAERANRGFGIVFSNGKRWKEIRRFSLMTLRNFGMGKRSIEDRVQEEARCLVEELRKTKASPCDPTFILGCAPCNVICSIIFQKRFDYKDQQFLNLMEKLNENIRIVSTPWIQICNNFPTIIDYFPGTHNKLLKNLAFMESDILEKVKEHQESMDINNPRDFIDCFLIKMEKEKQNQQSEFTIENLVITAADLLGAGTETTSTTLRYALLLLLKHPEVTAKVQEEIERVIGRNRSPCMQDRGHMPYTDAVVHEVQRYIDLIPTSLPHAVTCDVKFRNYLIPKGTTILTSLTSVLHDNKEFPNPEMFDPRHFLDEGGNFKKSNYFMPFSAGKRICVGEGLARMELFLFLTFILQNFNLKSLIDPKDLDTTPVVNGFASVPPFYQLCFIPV

As a reminder, the EC50 is the concentration that produces a half-maximal response. For the compound `Cc1cccc(N2C(=N)SCC2=O)c1C`, in assay [1], the EC50 is > 260 µM (inactive).

As to `Cn1c(CCC(=O)OCC(=O)Nc2ccc(Oc3ccccc3)cc2)nc(=O)c2ccccc21`, the EC50 in assay [1] was > 260 µM (inactive).

Usually AC50 stands for the midpoint of the concentration-response curve, whichever way the signal moves. Regarding `CC(C)c1ccc(/C(C(=O)O)=C(\O)C(=O)O)cc1`, the AC50 on Cytochrome P450 2C9 was 3.16 µM (inconclusive).

With `Cc1cc(C)n(-c2cc(=O)n(C)c(=O)n2C)n1`, the EC50 in [1] is > 260 µM (inactive).

Take `CCn1c(SCC(=O)c2ccccc2)nnc1-c1cccs1`: the AC50 on Cytochrome P450 2C9 is 28.2 µM (inconclusive).

As for `COCCN1C(=O)c2ccccc2C(C(=O)Nc2ccc3c(c2)OCCO3)C1c1ccc(F)cc1` (centres undefined), the AC50 at Cytochrome P450 2C9 was 35.5 µM (inconclusive).

Take `CCN(CC)S(=O)(=O)c1ccc2c(c1)nc(SCC(=O)NC1CC1)n2-c1ccccc1OC`: in assay [1], the EC50 was > 260 µM (inactive).

In the case of `COc1cc(OC)c(OC)cc1CNC(=O)c1cccc(S(=O)(=O)N2CCc3ccccc3C2)c1`, the AC50 in assay [2] was 2.39 µM (active); in assay [3], 3.08 µM (active); in assay [4], 24 µM (active).

For `O=C(NCc1ccco1)C1CC(O)CN1C(=O)Nc1ccccc1` (centres undefined), in assay [1], the EC50 is > 260 µM (inactive).

By IC50 is commonly meant the concentration that inhibits the measured activity by half. Consider `CN(C)CCCC1Sc2ccccc2Sc2ccccc21` (centres undefined), for which, in assay [5], the IC50 is 210 µM (active).

Take `Cn1c(=O)c2c(nc(NCCO)n2C)n(C)c1=O`: in assay [1], the EC50 was > 260 µM (inactive).

For the compound `COc1ccc(C)cc1Cn1c(S(C)(=O)=O)nc2ccccc21`, in assay [1], the EC50 was > 260 µM (inactive).

For the compound `COc1ccc(CN2CCC(C(N)=O)CC2)cc1OCc1ccccc1`, the IC50 in assay [5] was 204 µM (active).

Turning to `O=[N+]([O-])c1ccc(N2CCN(CCOCCO)CC2)c([N+](=O)[O-])c1`, in [5], the IC50 was 204 µM (active).

As for `CC(=O)c1cccc(NS(=O)(=O)c2ccc(N/C=C\C(=O)c3ccc(C)cc3)cc2)c1`, the AC50 in [2] was 1.51 µM (active); in assay [3], > 70 µM (inactive); in [4], 19.6 µM (active).

For `O=C(/C=C/c1ccc(Cl)cc1)NCCSc1ccccc1`, the half-maximal activity concentration (AC50) on Cytochrome P450 2C9 was 5.01 µM (inconclusive).

Turning to `CC1CCN(S(=O)(=O)c2ccc3c(c2)C(Cl)(Cl)C(=O)N3)CC1`, the IC50 in assay [5] is 60.3 µM (active).

As to `COc1cc(/C=N\NC(=O)CNC(=O)C2COc3ccccc3O2)ccc1O` (centres undefined), in assay [5], the IC50 was 29 µM (active).

As to `COc1ccccc1CNCC(=O)Nc1ccccc1-n1cccc1`, in [5], the IC50 is 179 µM (active).

For `COc1ccc(N=C(S)Nc2ccccc2SC)c(OC)c1`, the EC50 in assay [1] is > 260 µM (inactive).

`COc1ccc(OCCn2ccnc2C)cc1`: the IC50 in assay [5] is 136 µM (active).

On to `Cc1ccc(-c2csc3ncnc(O)c23)c(C)c1`, for which, in [1], the EC50 is > 260 µM (inactive).

In the case of `O=S(=O)(NC(=Nc1cccc2ccccc12)c1ccccc1)c1ccc(F)cc1`, in assay [1], the EC50 was > 260 µM (inactive).

In the case of `O=[N+]([O-])c1cccc(-c2nc(-c3ccncc3)no2)c1`, the AC50 at Cytochrome P450 2C9 is 8.91 µM (inconclusive).

On to `O=C1C(CC[S+]([O-])c2ccccc2)C(=O)N(c2ccccc2)N1c1ccccc1` (centres undefined) [SULFINPYRAZONE], for which, at Cytochrome P450 2C9, the AC50 is 10 µM (inconclusive).

As for `Cc1ccccc1OCC(=O)Nc1ccccc1N1CCCCC1`, the EC50 is 14.2 µM (active) on Streptokinase A, 242 µM (active) on Protein RecA, 17.9 µM (active) with Streptococcus and 9.64 µM (active) in [6].

As for `COC(=O)C/C=C\[C@@H](C)[C@@H](/C=N\O[C@@H](C)c1cc(-c2c(C)cc(C)cc2C)no1)OC`, the AC50 on Cytochrome P450 2C9 was 3.16 µM (inconclusive); on Cytochrome P450 2C19, 2.51 µM (inconclusive).

On to `O=C(COC(=O)C1CSC2(c3ccc(F)cc3)CCC(=O)N12)NC(=O)NC1CCCC1` (centres undefined), for which the EC50 in [1] was > 260 µM (inactive).

With `CCN1CCN(Cc2ccc(NC(=O)c3ccc(C)c(NC(=O)c4cncc(-c5cccs5)c4)c3)cc2C(F)(F)F)CC1`, the AC50 in assay [2] is 0.808 µM (active); in assay [3], 7.28 µM (active); in [4], 0.898 µM (active).

As to `COCC(=O)N1CCC2(CCCN(c3ccc(-c4ccccc4)cc3)C2)CC1`, the AC50 at Cytochrome P450 2C9 is 20 µM (inconclusive).

Turning to `N#Cc1ccccc1COC(=O)c1cc(=O)c2ccccc2o1`, the EC50 in assay [1] is > 260 µM (inactive).

As to `CCc1nnc(N/N=C/c2ccccc2Cl)n1N`, the EC50 in assay [1] is > 260 µM (inactive).

As for `O=C(NNC(=O)c1ccccc1-n1cccc1)c1ccccc1`, the AC50 is 35.5 µM (inconclusive) on Cytochrome P450 2C9 and 11.2 µM (inconclusive) on Cytochrome P450 2C19.
